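48-hour exposure; five concentrations; linearly interpolated endpoints. GI50 is the concentration that inhibits growth by half. The concentration for full growth arrest is given as TGI.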
Assays:
Assay in all cases: NCI anticancer screen, dose series, 48 h
[1] = system: K-562 leukemia
[2] = system: SR leukemia
[3] = system: NCI-H226 lung
[4] = system: OVCAR-5 ovarian
[5] = system: SW-620 colon
[6] = system: SNB-75 CNS
[7] = system: T-47D breast
[8] = system: MALME-3M melanoma
[9] = system: TK-10 renal
[10] = system: HS 578T breast

C#Cc1cccc(Nc2ncnc3cc(OCCOC)c(OCCOC)cc23)c1
GI50 [1]: 27.7 µM | TGI [1]: > 100 µM | GI50 [2]: 9.98 µM | TGI [2]: > 100 µM | GI50 [3]: 47.4 µM | TGI [3]: > 100 µM | TGI [4]: > 100 µM | TGI [5]: > 100 µM | TGI [6]: 46.7 µM | GI50 [7]: 4.17 µM | TGI [7]: > 100 µM | GI50 [8]: 1.85 µM | TGI [8]: 43 µM | GI50 [9]: 0.196 µM | TGI [9]: 47.8 µM | TGI [10]: 86.3 µM

c1cc2c3c(c1)[C@@H]1O[C@@H]1c1cccc(c1-3)[C@@H]1O[C@H]21
TGI [1]: > 100 µM | TGI [2]: > 100 µM | TGI [3]: > 100 µM | TGI [4]: 31.4 µM | TGI [6]: 70.1 µM | TGI [7]: 62.8 µM | TGI [8]: 29.6 µM | TGI [9]: > 100 µM | TGI [10]: 40 µM

Nc1cc2ncnc(Nc3cccc(Br)c3)c2cn1
TGI [1]: > 100 µM | TGI [2]: > 100 µM | TGI [3]: 71 µM | TGI [4]: > 100 µM | TGI [5]: > 100 µM | TGI [6]: > 100 µM | TGI [7]: > 100 µM | TGI [8]: > 100 µM | TGI [9]: 8.18 µM | TGI [10]: > 100 µM

O=C1/C(=C(/Br)I)c2ccccc2-c2ccccc21
TGI [1]: 7.24 µM | TGI [2]: > 30.5 µM | TGI [3]: 35.4 µM | TGI [4]: 25.5 µM | TGI [5]: 8.12 µM | TGI [6]: 29.7 µM | TGI [7]: > 80.4 µM | TGI [8]: 11.5 µM | TGI [9]: 21.3 µM | TGI [10]: > 100 µM

CC(=O)Nc1nc(C)c(S(=O)(=O)NC(=O)N2c3ccccc3CCc3ccccc32)s1
TGI [1]: > 100 µM | TGI [2]: > 100 µM | TGI [4]: > 100 µM | TGI [5]: > 100 µM | TGI [6]: > 100 µM | TGI [7]: > 100 µM | TGI [8]: > 100 µM | TGI [9]: > 100 µM | TGI [10]: > 100 µM

Cc1c(Cl)c(=O)oc2cc(OCC(O)COC(C)C)ccc12 (configuration not stated)
TGI [1]: > 100 µM | TGI [2]: 73.2 µM | TGI [4]: > 100 µM | TGI [5]: > 100 µM | TGI [7]: > 100 µM | TGI [8]: 35.8 µM | TGI [9]: > 100 µM | TGI [10]: > 100 µM

O=[N+]([O-])c1cccc([N+](=O)[O-])c1Cl
TGI [1]: > 100 µM | TGI [2]: > 100 µM | TGI [3]: 68.4 µM | TGI [4]: 43.1 µM | TGI [5]: > 100 µM | TGI [6]: 67.5 µM | TGI [7]: 14.7 µM | TGI [8]: 34.7 µM | TGI [9]: 41.3 µM | TGI [10]: 82.3 µM

C=C1CC(Cn2cc(Br)c(=O)[nH]c2=O)(c2ccc(Br)cc2)OC1=O (configuration not stated)
TGI [1]: > 100 µM | TGI [2]: > 22.6 µM | TGI [3]: 36.6 µM | TGI [4]: 22.5 µM | TGI [5]: 3.79 µM | TGI [6]: 26.7 µM | TGI [7]: 5.04 µM | TGI [8]: 4.7 µM | TGI [9]: 23 µM | TGI [10]: > 32.4 µM

CCCCN(CCCC)C1=Nc2ccccc2-n2c(nnc2C(=O)OCC)C1
TGI [1]: 86.9 µM | TGI [2]: 56.3 µM | TGI [3]: > 100 µM | TGI [4]: > 100 µM | TGI [5]: > 100 µM | TGI [6]: > 100 µM | TGI [7]: > 100 µM | TGI [8]: 82.1 µM | TGI [9]: > 100 µM | TGI [10]: > 100 µM

CCOC(=O)COC1=Nc2cc(OC)c(OC)c3nc(Cl)cc(c23)C1=O
TGI [1]: 7.2 µM | TGI [2]: > 21.5 µM | TGI [3]: 28.6 µM | TGI [4]: 4.11 µM | TGI [5]: > 21.6 µM | TGI [6]: 5.87 µM | TGI [7]: 24 µM | TGI [8]: 2.71 µM | TGI [9]: 3.45 µM | TGI [10]: > 20.6 µM

O=C(O)Cn1ncn(NC(=O)Cc2ccccc2)c1=S
TGI [1]: > 10 µM | TGI [2]: > 10 µM | TGI [4]: > 10 µM | TGI [5]: > 10 µM | TGI [6]: > 10 µM | TGI [7]: > 10 µM | TGI [8]: > 10 µM | TGI [9]: > 10 µM | TGI [10]: > 10 µM

COc1ccc(OC)c(-c2cn3c(n2)sc2ccccc23)c1
TGI [1]: > 100 µM | TGI [2]: > 100 µM | TGI [3]: > 100 µM | TGI [4]: > 100 µM | TGI [5]: > 100 µM | TGI [6]: > 100 µM | TGI [7]: > 100 µM | TGI [8]: > 100 µM | TGI [9]: > 100 µM | TGI [10]: > 100 µM

O=C1/C(=C/C=C/c2ccccc2)CCC1CNc1ccc(Br)cc1 (configuration not stated)
TGI [1]: > 100 µM | TGI [2]: > 100 µM | TGI [3]: > 100 µM | TGI [4]: > 100 µM | TGI [5]: > 100 µM | TGI [7]: > 100 µM | TGI [8]: 0.246 µM | TGI [9]: > 100 µM | TGI [10]: > 100 µM

CCOC(=O)c1c(SCCN2CCCCC2)n(-c2ccccc2)c(=S)n(-c2ccccc2)c1=O
TGI [1]: 11 µM | TGI [2]: > 20.4 µM | TGI [3]: 16.9 µM | TGI [4]: > 100 µM | TGI [5]: 13.8 µM | TGI [6]: 37.1 µM | TGI [7]: 8.27 µM | TGI [8]: 30.3 µM | TGI [9]: 31.9 µM | TGI [10]: 80.1 µM

COc1c(-c2ccc(F)cc2)oc2cc(O)cc(O)c2c1=O
TGI [1]: > 100 µM | TGI [2]: > 100 µM | TGI [4]: 80.5 µM | TGI [5]: > 100 µM | TGI [6]: 64 µM | TGI [7]: 56.9 µM | TGI [8]: 61.1 µM | TGI [10]: > 100 µM

O=C1CCc2cc3c(cc21)C(C(=O)O)CC3 (configuration not stated)
TGI [1]: > 100 µM | TGI [2]: > 100 µM | TGI [3]: > 100 µM | TGI [4]: > 100 µM | TGI [5]: > 100 µM | TGI [6]: > 100 µM | TGI [7]: > 100 µM | TGI [8]: > 100 µM | TGI [9]: > 100 µM | TGI [10]: > 100 µM

CCC(=O)Nc1ccc(N2C(=O)/C(=C/c3ccc(O)c(OC)c3)N=C2c2ccccc2)cc1
TGI [1]: > 100 µM | TGI [2]: > 100 µM | TGI [3]: 50.5 µM | TGI [4]: > 100 µM | TGI [5]: > 100 µM | TGI [6]: > 100 µM | TGI [7]: > 100 µM | TGI [8]: > 100 µM | TGI [10]: > 100 µM

CC(C)CCCC(C)[C@H]1CC[C@H]2NCCCC[C@]12C (some centres not stated)
TGI [1]: 6.61 µM | TGI [2]: 6.23 µM | TGI [3]: 29 µM | TGI [4]: 6.03 µM | TGI [5]: 9.84 µM | TGI [6]: 16 µM | TGI [7]: 8.93 µM | TGI [8]: 16.4 µM | TGI [9]: 11.9 µM | TGI [10]: 15.8 µM

COC(=O)c1c(C)cccc1C1CN=NC12Cc1cccc(C)c1C2=O (configuration not stated)
TGI [1]: 79.5 µM | TGI [2]: > 100 µM | TGI [3]: 98.4 µM | TGI [4]: > 100 µM | TGI [5]: > 100 µM | TGI [6]: > 100 µM | TGI [7]: > 100 µM | TGI [8]: 87.2 µM | TGI [9]: > 100 µM | TGI [10]: > 100 µM

O=P1(N(CCCl)CCCl)NCCCO1 (configuration not stated)
TGI [1]: > 230 µM | TGI [2]: > 250 µM | TGI [3]: > 250 µM | TGI [4]: > 238 µM | TGI [5]: > 250 µM | TGI [6]: > 250 µM | TGI [7]: > 250 µM | TGI [8]: > 250 µM | TGI [9]: > 250 µM | TGI [10]: > 250 µM

CCCCCCCCCCC[N+]1(Cc2ccccc2)CC2CCN(Cc3ccccc3)CC2C1 (configuration not stated)
TGI [1]: 0.827 µM | TGI [2]: 1.07 µM | TGI [3]: 1.98 µM | TGI [4]: 2.9 µM | TGI [5]: 1.58 µM | TGI [6]: 2.45 µM | TGI [7]: 1.37 µM | TGI [8]: 1.26 µM | TGI [9]: 2.57 µM | TGI [10]: 1.57 µM

Cc1cc2nc3c(N)nn(CCN(C)C)c3nc2cc1C
TGI [1]: > 100 µM | TGI [2]: > 100 µM | TGI [3]: 79.4 µM | TGI [4]: > 100 µM | TGI [5]: > 100 µM | TGI [6]: 97.9 µM | TGI [7]: > 100 µM | TGI [8]: > 100 µM | TGI [9]: > 100 µM | TGI [10]: > 100 µM
